Assay results reported in patent EP4603105A1, “PHARMACEUTICAL COMPOSITION CONTAINING CYCLIC COMPOUND HAVING SELECTIVE KRAS INHIBITORY EFFECT AGAINST HRAS AND NRAS” (CHUGAI SEIYAKU KABUSHIKI KAISHA, priority 2022, dated 2024).
Like-named read-outs stand apart in the source and are kept apart here.

Legend:
HRAS wild-type protein = HRAS wild-type protein (Homo sapiens, UniProt P01112); assay: Binding to HRAS by surface plasmon resonance (SPR), KD and KD ratio to KRAS
Outline: (§1)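 Each cycle, GDP-bound biotin-Avi RAS was captured (~100–300 RU), compound concentrations were injected low to high for 75 s each at 100 µL/min, then the chip was regenerated. Buffer: HBS pH 7.4, 10 mM MgCl2, 10 µM GDP, 1 mM DTT, 4% DMSO; 30°C. KD from a 1:1 binding model.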

[1] = target: GDP-bound KRAS wild-type protein (Homo sapiens, UniProt P01116); assay: Binding to KRAS by surface plasmon resonance (SPR), dissociation constant KD
Outline: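 Captured GDP-RAS (~100–300 RU) was exposed to increasing compound concentrations, 75 s per step, in running buffer with 10 µM GDP, 10 mM MgCl2 and 4% DMSO at pH 7.4.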

[2] = system: human lung cancer strain NCI-H441; assay: NCI-H441 cell proliferation inhibitory activity (CellTiter-Glo, 4 days); assay type: cell-based; details: read-out: NCl-H441 IC50
Outline: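 Signal came from […] measured per well once the reagent was added. Beforehand, cells were cultured at 37°C and 5% carbon dioxide on a compound series serially diluted in dimethyl sulfoxide.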

[3] = target: GDP-bound NRAS wild-type protein (Homo sapiens, UniProt P01111); assay: Binding to NRAS by surface plasmon resonance (SPR), KD and KD ratio to KRAS
Outline: as §1

[4] = ratio of KD for HRAS wild-type protein to KD for KRAS
[5] = ratio of KD for GDP-bound NRAS wild-type protein to KD for KRAS
[6] = ratio of KD with respect to HRAS wild-type protein to KD with respect to KRAS
[7] = Single Cycle Kinetics, 1:1 binding model
[8] = 50% proliferation inhibitory concentration, four days
[9] = ratio of KD with respect to GDP-bound NRAS wild-type protein to KD with respect to KRAS

Sequence of GDP-bound KRAS wild-type protein (P01116 1-188 isoform P01116-2): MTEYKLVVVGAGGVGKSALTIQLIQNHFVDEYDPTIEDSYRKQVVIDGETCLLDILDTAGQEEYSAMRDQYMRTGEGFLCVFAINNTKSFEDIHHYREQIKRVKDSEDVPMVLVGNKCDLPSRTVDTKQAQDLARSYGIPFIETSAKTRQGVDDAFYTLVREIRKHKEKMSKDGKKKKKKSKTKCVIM
Sequence of GDP-bound NRAS wild-type protein (P01111 whole entry): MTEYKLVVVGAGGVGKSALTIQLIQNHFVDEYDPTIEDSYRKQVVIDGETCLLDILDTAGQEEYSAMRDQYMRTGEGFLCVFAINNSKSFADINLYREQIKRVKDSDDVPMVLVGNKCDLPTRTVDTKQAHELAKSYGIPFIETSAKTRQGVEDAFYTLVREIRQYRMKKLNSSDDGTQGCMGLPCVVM
Sequence of HRAS wild-type protein (P01112 whole entry): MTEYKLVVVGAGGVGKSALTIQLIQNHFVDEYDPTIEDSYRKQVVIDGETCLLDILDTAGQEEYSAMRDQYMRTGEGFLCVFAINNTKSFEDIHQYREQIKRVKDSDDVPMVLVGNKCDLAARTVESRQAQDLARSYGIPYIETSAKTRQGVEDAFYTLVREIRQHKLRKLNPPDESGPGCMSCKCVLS

SMILES	HRAS /KRAS (HRAS wild-type protein; [4])	Kd ([1]; 1:1 binding model) [nM]	IC50 ([2]; NCI-H441 cells, 4 days) [nM]	NRAS /KRAS [3, 5]	Kd ([1]; Single Cycle Kinetics) [nM]	HRAS /KRAS (HRAS wild-type protein; [6])	Kd [1, 7] [nM]	IC50 [2, 8] [nM]	NRAS /KRAS [3, 9]
CCC(CC)[C@H]1C(=O)N(C)[C@H](C(=O)N(C)C)CC(=O)N(C)[C@@H](COC)C(=O)N[C@@H]([C@@H](C)CC)C(=O)N(C)CC(=O)N(C)[C@H]2C/C=C\CCN(C2=O)[C@@H](CC2CCC(F)(F)CC2)C(=O)N(C)CC(=O)N[C@@H](CCc2cc(F)c(C(F)(F)F)c(F)c2)C(=O)N2C[C@@H](C)C[C@H]2C(=O)NC2(CC(C)(C)C2)C(=O)N1C [PP2448]	A (a compound having 10 or more and less than 20 is denoted as A)	1.4	26.9	A (a compound having 10 or more and less than 20 is denoted as A)					
CCC[C@H]1C(=O)N[C@@H](CC(C)C)C(=O)N(CC)CC(=O)N(C)[C@H]2C/C=C\CCN(C2=O)[C@@H](Cc2ccc(C)cc2)C(=O)N(C)CC(=O)N[C@@H](CCc2ccc(C(F)(F)F)c(Cl)c2)C(=O)N2C[C@H](OCC)C[C@H]2C(=O)NC2(CC(C)(C)C2)C(=O)N(C)[C@@H](C2CCCC2)C(=O)N(C)[C@H](C(=O)N(C)C)CC(=O)N1C [PP2528]	B (a compound having 3 or more and less than 10 is denoted as B)	4.6	207	A (a compound having 10 or more and less than 20 is denoted as A)					
CCO[C@@H]1C[C@H]2C(=O)NC3(CC(C)(C)C3)C(=O)N(C)[C@@H](C(CC)CC)C(=O)N(C)[C@H](C(=O)N(C)C)CC(=O)N(C)[C@@H](COC)C(=O)N[C@@H]([C@@H](C)CC)C(=O)N(C3CC3)CC(=O)N(C)[C@H]3C/C=C\CCN(C3=O)[C@@H](CC3CCCCC3)C(=O)N(C)CC(=O)N[C@@H](CCc3cc(F)c(C(F)(F)F)c(F)c3)C(=O)N2C1 [PP2564]	A (a compound having 10 or more and less than 20 is denoted as A)	7.6	222	A (a compound having 10 or more and less than 20 is denoted as A)					
CCC[C@H]1C(=O)N[C@@H]([C@@H](C)CC)C(=O)N(C)CC(=O)N(C)[C@H]2C/C=C\CCN(C2=O)[C@@H](Cc2ccc(C(F)(F)F)cc2)C(=O)N(C)CC(=O)N[C@@H](CCc2cc(F)c(C(F)(F)F)c(F)c2)C(=O)N2CC[C@H](OC)[C@H]2C(=O)N(C)C2(CCC2)C(=O)N(C)[C@@H](C2CCCC2)C(=O)N(C)[C@H](C(=O)N(C)C)CC(=O)N1C [PP3284]	A (a compound having 10 or more and less than 20 is denoted as A)		5	A (a compound having 10 or more and less than 20 is denoted as A)	0.067				
CCO[C@@H]1C[C@H]2C(=O)NC3(CC(C)(C)C3)C(=O)N(C)[C@@H](C3CCCC3)C(=O)N(C)[C@H](C(=O)N(C)CC)CC(=O)N(C)[C@@H]([C@H](C)OC)C(=O)N[C@@H]([C@@H](C)CC)C(=O)N3CCC[C@H]3C(=O)N(C)[C@H]3C/C=C\CCN(C3=O)[C@@H](Cc3ccc(C(F)(F)F)cc3)C(=O)N(C)CC(=O)N[C@@H](CCc3cc(F)c(C(F)(F)F)c(F)c3)C(=O)N2C1 [PP3223]	A (a compound having 10 or more and less than 20 is denoted as A)		49.6	A (a compound having 10 or more and less than 20 is denoted as A)	1.1				
CCC[C@H]1C(=O)N[C@@H]([C@@H](C)CC)C(=O)N(C2CC2)CC(=O)N(C)[C@H]2C/C=C\CCN(C2=O)[C@@H](Cc2ccc(C(F)(F)F)cc2)C(=O)N(C)CC(=O)N[C@@H](CCc2ccc(C(F)(F)F)c(OC)c2)C(=O)N2C[C@H](OCC)C[C@H]2C(=O)NC2(CC(C)(C)C2)C(=O)N(C)[C@@H](CC(C)(C)C)C(=O)N(C)[C@H](C(=O)N(C)C)CC(=O)N1C [PP2746]	A (a compound having 10 or more and less than 20 is denoted as A)	0.28	10.2	A (a compound having 10 or more and less than 20 is denoted as A)					
CCC[C@H]1C(=O)N[C@@H]([C@@H](C)CC)C(=O)N(C)CC(=O)N(C)[C@H]2C/C=C\CCN(C2=O)[C@@H](Cc2ccc(C(F)(F)F)cc2)C(=O)N(C)CC(=O)N[C@@H](CCc2ccc(C(F)(F)F)c(OC)c2)C(=O)N2C[C@H](OCC)C[C@H]2C(=O)N(C)C2(CCC2)C(=O)N(C)[C@@H](C(CC)CC)C(=O)N(C)[C@H](C(=O)N(C)C)CC(=O)N1C [PP2382]	A (a compound having 10 or more and less than 20 is denoted as A)	0.12	4.6	A (a compound having 10 or more and less than 20 is denoted as A)					
CCCO[C@@H]1C[C@H]2C(=O)NC3(CC(C)(C)C3)C(=O)N(C)[C@@H](C3CCCC3)C(=O)N(C)[C@H](C(=O)N(C)CC)CC(=O)N[C@@H](COCC)C(=O)N[C@@H]([C@@H](C)CC)C(=O)N(C3CC3)CC(=O)N(C)[C@H]3C/C=C\CCN(C3=O)[C@@H](Cc3ccc(C)cc3)C(=O)N(C)CC(=O)N[C@@H](CCc3ccc(C(F)(F)F)c(Cl)c3)C(=O)N2C1 [PP3429]	A (a compound having 10 or more and less than 20 is denoted as A)		78.6	A (a compound having 10 or more and less than 20 is denoted as A)	2.5				
CCO[C@@H]1C[C@H]2C(=O)NC3(CCC3)C(=O)N(C)[C@@H](C3CCCC3)C(=O)N(C)[C@H](C(=O)N(C)C)CC(=O)N(C)[C@@H](CC3CC3)C(=O)N[C@@H]([C@@H](C)CC)C(=O)N(C)CC(=O)N(C)[C@H]3C/C=C\CCN(C3=O)[C@@H](Cc3ccc(F)cc3C)C(=O)N(C)CC(=O)N[C@@H](CCc3ccc(Cl)c(Cl)c3)C(=O)N2C1 [PP1476]						B (a compound having 3 or more and less than 10 is denoted as B)	1	216	A (a compound having 10 or more and less than 20 is denoted as A)
C#CCN1CC(=O)N(C)[C@H]2C/C=C\CCN(C2=O)[C@@H](Cc2ccc(C)cc2)C(=O)N(C)CC(=O)N[C@@H](CCc2ccc(C(F)(F)F)c(OC)c2)C(=O)N2C[C@H](OCC)C[C@H]2C(=O)NC2(CC(C)(C)C2)C(=O)N(C)[C@@H](C2CCCC2)C(=O)N(C)[C@H](C(=O)N(C)C)CC(=O)N(C)[C@@H](CCC)C(=O)N[C@@H](CC(C)C)C1=O [PP2514]	B (a compound having 3 or more and less than 10 is denoted as B)	2.4	86.8	A (a compound having 10 or more and less than 20 is denoted as A)					
CCC[C@H]1C(=O)N[C@@H]([C@@H](C)CC)C(=O)N(C)CC(=O)N(C)[C@H]2C/C=C\CCN(C2=O)[C@@H](Cc2ccc(C(F)(F)F)cc2)C(=O)N(C)CC(=O)N[C@@H](CCc2ccc(C(F)(F)F)c(Cl)c2)C(=O)N2CC3(CC3)C[C@H]2C(=O)NC2(CCC2)C(=O)N(C)[C@@H]([C@@H](C)CC)C(=O)N(C)[C@H](C(=O)N(C)C)CC(=O)N1C [PP3416]	A (a compound having 10 or more and less than 20 is denoted as A)		12.9	AA (a compound having 20 or more is denoted as AA)	0.25				
CCC[C@H]1C(=O)N[C@@H]([C@@H](C)CC)C(=O)N2CCCC[C@H]2C(=O)N(C)[C@H]2C/C=C\CCN(C2=O)[C@@H](Cc2ccc(C(F)(F)F)cc2)C(=O)N(C)CC(=O)N[C@@H](CCc2cc(F)c(C(F)(F)F)c(F)c2)C(=O)N2C[C@H](OCC)C[C@H]2C(=O)N(C)C2(CCC2)C(=O)N(C)[C@@H](C2CCCC2)C(=O)N(C)[C@H](C(=O)N(C)C)CC(=O)N1C [PP3271]	B (a compound having 3 or more and less than 10 is denoted as B)		22.7	A (a compound having 10 or more and less than 20 is denoted as A)	0.82				
CCO[C@@H]1C[C@H]2C(=O)NC3(CCCC3)C(=O)N(C)[C@@H](C3CCCC3)C(=O)N(C)[C@H](C(=O)N3CCOCC3)CC(=O)N(C)[C@@H](CC)C(=O)N[C@@H]([C@@H](C)CC)C(=O)N(C)CC(=O)N(C)[C@H]3C[C@@H](C)[C@@H](C)CN(C3=O)[C@@H](Cc3ccc(C(F)(F)F)cc3)C(=O)N(C)CC(=O)N[C@@H](CCc3cc(F)c(C(F)(F)F)c(F)c3)C(=O)N2C1 [PP1353]						B (a compound having 3 or more and less than 10 is denoted as B)	0.1	3.7	A (a compound having 10 or more and less than 20 is denoted as A)
CCCN(C)C(=O)[C@@H]1CC(=O)N(C)[C@@H](CC(C)C)C(=O)N[C@@H]([C@@H](C)CC)C(=O)N2CCC[C@H]2C(=O)N(C)[C@H]2C/C=C\CCN(C2=O)[C@@H](Cc2ccc(C(F)(F)F)cc2)C(=O)N(C)CC(=O)N[C@@H](CCc2cc(F)c(C(F)(F)F)c(F)c2)C(=O)N2C[C@H](OCC)C[C@H]2C(=O)N[C@]2(C[C@@H](OC)C2)C(=O)N(C)[C@@H](C2CCCC2)C(=O)N1C [PP3354]	A (a compound having 10 or more and less than 20 is denoted as A)		58.5	A (a compound having 10 or more and less than 20 is denoted as A)	1.4				
CCC[C@H]1C(=O)N[C@@H](CC(C)C)C(=O)N(C2CC2)CC(=O)N(C)[C@H]2C/C=C\CCN(C2=O)[C@@H](Cc2ccc(C)cc2)C(=O)N(C)CC(=O)N[C@@H](CCc2cc(F)c(C(F)(F)F)c(F)c2)C(=O)N2C[C@H](OCC)C[C@H]2C(=O)NC2(CCC2)C(=O)N(C)[C@@H](C2CCCC2)C(=O)N(C)[C@H](C(=O)N(C)C)CC(=O)N1C [PP2532]	B (a compound having 3 or more and less than 10 is denoted as B)	4.1	144	A (a compound having 10 or more and less than 20 is denoted as A)					
